≈ marks a conversion by molar mass, not a printed value.
Experiments:
[1] = tested on: B16; assay: Inhibition of alpha-MSH-stimulated melanogenesis in mouse B16 cells assessed as melanin release after 72 hrs; assay type: functional, cell-based; conditions: for IC50: B16, 72 h
[2] = tested on: B16; assay: Cytotoxicity against mouse B16 cells assessed as cell viability; assay type: cell-based

## OC[C@H]1O[C@@H](Oc2ccc(O)cc2)[C@H](O)[C@@H](O)[C@@H]1O [ARBUTIN]
[1]
  IC50: 67.9 µg/mL (≈ 249 µM)

## CC(C)=C/C=C1\O[C@@H]2CC(C)=CC(=O)[C@@H]2[C@]1(C)O [BISABOLANGELONE]
[2]
  Activity: Non-toxic
[1]
  inhibition: Dose-dependent effect
  IC50: 5.3 µg/mL (≈ 21.3 µM)

## C/C=C(/C)C(=O)O[C@H]1Cc2cc3ccc(=O)oc3cc2OC1(C)C [DECURSINOL ANGELATE]
[2]
  Activity: Non-toxic
[1]
  inhibition: Dose-dependent effect
  IC50: 5.8 µg/mL (≈ 17.7 µM)

## C=C[C@@H](O)C#CC#C[C@@H](O)/C=C\CCCCCCC [FALCARINDIOL]
[2]
  Activity: Non-toxic
[1]
  inhibition: Dose-dependent effect
  IC50: 2.9 µg/mL (≈ 11.1 µM)

## O=c1cc(CO)occ1O [KOJIC ACID]
[1]
  IC50: 5.5 µg/mL (≈ 38.7 µM)

## CO[C@@]1(/C=C/C(C)(C)O)O[C@H]2CC(C)=CC(=O)[C@H]2[C@@]1(C)O [OSTERIVOLONE A]
[2]
  Activity: Non-toxic
[1]
  inhibition: Dose-dependent effect
  IC50: 1.1 µg/mL (≈ 3.71 µM)

## COC(C)(C)/C=C/[C@]1(OC)O[C@H]2CC(C)=CC(=O)[C@H]2[C@@]1(C)O [OSTERIVOLONE B]
[2]
  Activity: Non-toxic
[1]
  inhibition: Dose-dependent effect
  IC50: 5.6 µg/mL (≈ 18 µM)

## CO[C@@]1(C(C=C(C)C)OC(C=C(C)C)[C@]2(O)O[C@H]3CC(C)=CC(=O)[C@H]3[C@@]2(C)O)O[C@H]2CC(C)=CC(=O)[C@H]2[C@@]1(C)O (some centres undefined) [OSTERIVOLONE C]
[2]
  Activity: Non-toxic
[1]
  inhibition: Dose-dependent effect
  IC50: 4.5 µg/mL (≈ 8.03 µM)

## CC(C)=C/C=C1\O[C@H]2C[C@](C)(O)CC(=O)[C@H]2[C@@]1(C)O [OSTERIVOLONE D]
[2]
  Activity: Non-toxic
[1]
  inhibition: Dose-dependent effect
  IC50: 1.9 µg/mL (≈ 7.13 µM)

## O=c1ccc2cc3ccoc3cc2o1 [PSORALEN]
[1]
  IC50: > 200 µg/mL
